# Reference: patent publication US20240415834A1, “LURBINECTEDIN AND ATEZOLIZUMAB COMBINATIONS” (priority 2021, published 2024)
# Where two headings read alike, the source gives them in different places.
# Columns and labels:
# [1] = Cardiovascular parameters (ABP, HR, lead II ECG) after single bolus injection in dogs; assay type: in vivo; conditions: six hours, doses up to 0.01 mg/kg (0.2 mg/m^2)
# [2] = test system: human-derived tumour xenografts; test: Tumour susceptibility in xenografts of human-derived tumour types; assay type: in vivo, athymic mice; conditions: single bolus i.v. at rodent MTD 0.3 mg/kg
# PC-3 prostate xenograft = test: In vivo antitumour activity in xenografts; design: species or system athymic mice; conditions: Prostate PC-3; Q7d × 3; 0.18 mg/kg/day (0.54 mg/m^2/day); optimal day D-27
# [3] = PM1183-A-008-13 phase I study, interaction with aprepitant; assay type: in vivo, human; conditions: in the presence of aprepitant (CYP3A4 inhibitor), patients
# From the text: PM01183 clearance was reduced by 50%, approximately, in the presence of aprepitant. Although all patients eventually recovered, the use of aprepitant is currently forbidden in all PM01183 studies.
# [4] = dog, in vivo
# [5] = test system: patients with advanced and refractory solid tumours; design: species or system human; conditions: in vivo
# Experimental: The completed PM1183-A-001-08 phase I trial evaluated i.v. lurbinectedin in human patients for the first time, when infused over one hour (h) every three weeks (q3 wk) in 31 patients with advanced and refractory solid tumours. Among these, 15 (48.4%) patients were treated at the defined recommended dose (RD). The RD for phase II studies was defined at a PM01183 dose of 4.0 mg/m^2 q3 wk-equivalent to a 7.0 mg flat dose (FD) q3 wk. […] No signs of cumulative toxicity were observed.
# A2780 ovary xenograft = test: In vivo antitumour activity in xenografts; design: species or system athymic mice; conditions: Q7d × 3, 0.18 mg/kg/day (0.54 mg/m^2/day), optimal day D-17
# [6] = rat, in vivo
# [7] = test system: MDA-MB-231 breast xenograft; test: In vivo antitumour activity in xenografts; design: species or system athymic mice; conditions: Breast MDA-MB-231; Q7d × 3; 0.18 mg/kg/day (0.54 mg/m^2/day); optimal day D-34
# CYP isoforms = test: In vitro metabolism studies with human microsomes; assay type: in vitro ADME; conditions: followed by CYP2E1, CYP2D6 and CYP2C9
# From the text: The estimated contribution of the other CYP isoenzymes to the PM01183 metabolism is considered to be negligible. Therefore, concomitant drugs which induce or inhibit any of these cytochromes, especially CYP3A4, should be carefully monitored or avoided, whenever is possible.
# [8] = test system: patients with metastatic SCLC; conditions: cited from earlier work
# [9] = test system: Capan-1 pancreas xenograft; test: In vivo antitumour activity in xenografts; design: species or system athymic mice; conditions: Pancreas Capan-1; Q7d × 3; 0.18 mg/kg/day (0.54 mg/m^2/day); optimal day D-61
# LXFL 529 lung xenograft = test: In vivo antitumour activity in xenografts; design: species or system athymic mice; conditions: Lung LXFL 529; Q7d × 3; 0.18 mg/kg/day (0.54 mg/m^2/day); optimal day D-28
# [10] = test system: UM-UC-3 bladder xenograft; test: In vivo antitumour activity in xenografts; design: species or system athymic mice; conditions: Bladder UM-UC-3; Qd × 5 × 2; 0.06 mg/kg/day (0.18 mg/m^2/day); optimal day D-23
# [11] = Pooled logistic regression analysis of phase II data, review of recommended dose; assay type: in vivo, human; conditions: q3 wk, BSA-based dosing, to limit severe myelosuppression
# Experimental: Owing to these findings, all actively recruiting and planned studies now use BSA-based dosing to limit severe myelosuppression. The original RD of 4.0 mg/m^2 q3 wk has been reviewed and reduced to 3.2 mg/m^2 q3 wk for the same reason.
# HT-29 = test: MTT short-term viability assay, 72 hours exposure; assay type: cell-based; conditions: Homo sapiens, Colon, read-out: IG50 (the source's name)
# Experimental: (§1) The antineoplastic in vitro activity of lurbinectedin was evaluated in a panel of solid tumour cell lines (some of which are shown in Table 1), which were exposed to a range of lurbinectedin concentrations for 72 hours and then assayed for viability by a MTT short-term assay.
# IGROV-1 = test: MTT short-term viability assay, 72 hours exposure; assay type: cell-based; conditions: Homo sapiens, Ovarian, read-out: IG50 (the source's name)
# Experimental: as §1
# A2780 = test: MTT short-term viability assay, 72 hours exposure; assay type: cell-based; conditions: Homo sapiens, Ovarian, read-out: IG50 (the source's name)
# Experimental: as §1
# MDA-MB-231 = test: MTT short-term viability assay, 72 hours exposure; assay type: cell-based; conditions: Homo sapiens, Breast, read-out: IG50 (the source's name)
# Experimental: as §1
# A-549 = test: MTT short-term viability assay, 72 hours exposure; assay type: cell-based; conditions: Homo sapiens, A549, Lung, read-out: IG50 (the source's name)
# Experimental: as §1
# BT-474 = test: MTT short-term viability assay, 72 hours exposure; assay type: cell-based; conditions: Homo sapiens, Breast, read-out: IG50 (the source's name)
# Experimental: as §1
# NCl-H460 = test: MTT short-term viability assay, 72 hours exposure; assay type: cell-based; conditions: Lung, read-out: IG50 (the source's name)
# Experimental: as §1
# MiaPaca-2 = test: MTT short-term viability assay, 72 hours exposure; assay type: cell-based; conditions: Homo sapiens, MIA PaCa-2, Pancreas, read-out: IG50 (the source's name)
# Experimental: as §1
# PANC-1 = test: MTT short-term viability assay, 72 hours exposure; assay type: cell-based; conditions: Homo sapiens, Pancreas, read-out: IG50 (the source's name)
# Experimental: as §1
# MCF-7 = test: MTT short-term viability assay, 72 hours exposure; assay type: cell-based; conditions: Homo sapiens, MCF7, Breast, read-out: IG50 (the source's name)
# Experimental: as §1
# HCT 116 = test: MTT short-term viability assay, 72 hours exposure; assay type: cell-based; conditions: Homo sapiens, Colon, read-out: IG50 (the source's name)
# Experimental: as §1
# LoVo = test: MTT short-term viability assay, 72 hours exposure; assay type: cell-based; conditions: Homo sapiens, Colon, read-out: IG50 (the source's name)
# Experimental: as §1
# NCl-H23 = test: MTT short-term viability assay, 72 hours exposure; assay type: cell-based; conditions: Lung, read-out: IG50 (the source's name)
# Experimental: as §1
# MX-1 breast xenograft = test: In vivo antitumour activity in xenografts; design: species or system athymic mice; conditions: Breast MX-1; Q7d × 3; 0.18 mg/kg/day (0.54 mg/m^2/day); optimal day D-21
# in vivo = conditions: rodent, iv
# [12] = test system: broad selection of tumour-derived cell lines; test: In vitro cytotoxic effects against tumour-derived cell lines; assay type: cell-based; conditions: read-out: median IC50
# [13] = Toxicity studies: HR and ECGs of dogs after single or repeated administration; assay type: in vivo; conditions: doses up to 0.05 mg/kg (1 mg/m^2)
# patients with ES-SCLC = conditions: IMpower133; cited from earlier work
molecule,measurement,setting,value
"COc1ccc2[nH]c3c(c2c1)CCN[C@]31CS[C@@H]2c3c(OC(C)=O)c(C)c4c(c3[C@H](COC1=O)N1[C@@H]2[C@H]2c3c(cc(C)c(OC)c3O)C[C@@H]([C@@H]1O)N2C)OCO4 [PM01183, lurbinectedin]","effects on heart, ABP, lead II ECG variables (PR, QT, QTcF, QTcV, QRS), ECG gross morphology or rhythm",[1],no effects
same,"antitumour activity against bladder, pancreas and prostate xenografts",[2],more moderate antitumour profile
same,"antitumour activity against breast, lung and ovarian xenografts",[2]; different time points,statistically significant antitumour activity (p<0.05)
same,T/C %,PC-3 prostate xenograft,65%
same,clearance reduction,[3],~50%
same,main target organs of toxicity,[4],bone marrow and the liver
same,dose-limiting toxicity (DLT) at the RD,[5]; human,grade 4 thrombocytopenia
same,inter-patient variability in the area under the curve [AUC],[5]; human,> 50.0%
same,"recommended dose, equivalent flat dose (FD)",[5]; human,7.0 mg
same,recommended dose (RD) for phase II studies,"[5]; human, iv",4.0 mg/m^2
same,PK dose linearity,[5],linearity across all explored doses
same,tolerability at the RD,[5],generally well tolerated
same,T/C %,A2780 ovary xenograft,34%
same,main target organs of toxicity,[6],bone marrow and the liver
same,T/C %,[7],40%
same,major CYP isoform involved in the metabolism,CYP isoforms,CYP3A4
same,median response duration,"[8]; independent review committee, 95% CI 4.9, 6.4",5.1 months
same,ORR,"[8]; independent review committee, 95% CI 22%, 40%",30%
same,ORR,"[8]; investigator assessment RECIST 1.1, 105 patients, 3.2 mg/m^2 i.v. every 21 days, 95% CI 26%, 45%",35%
same,median response duration,"[8]; investigator assessment, 95% CI 4.1, 6.4",5.3 months
same,T/C %,[9],61%
same,T/C %,LXFL 529 lung xenograft,5%
same,T/C %,[10],58%
same,"recommended dose, reviewed and reduced",[11],3.2 mg/m^2
same,IC50,HT-29,2.4 nM
same,IC50,IGROV-1,9.8 nM
same,IC50,A2780,1.6 nM
same,IC50,MDA-MB-231,3.5 nM
same,IC50,A-549,1.3 nM
same,IC50,BT-474,1.3 nM
same,IC50,NCl-H460,1.6 nM
same,IC50,MiaPaca-2,1.1 nM
same,IC50,PANC-1,2.9 nM
same,IC50,MCF-7,1.7 nM
same,IC50,HCT 116,65 nM
same,IC50,LoVo,2 nM
same,IC50,NCl-H23,0.54 nM
same,T/C %,MX-1 breast xenograft,0%
same,MTD,in vivo,0.3 mg/kg
same,IC50,[12],~0.1 nM
same,electrophysiological alterations in HR and ECGs,[13],no electrophysiological alterations
atezolizumab: humanized IgG1 monoclonal antibody that targets human PD-L1,most common adverse reaction reported in ≥20% of patients,patients with ES-SCLC,"fatigue/asthenia, nausea, alopecia, constipation and decreased appetite"
